What was measured:
[1] = tested on: COLO 205; experiment: Effective dose to show cytotoxicity against colon cancer COLO 205 cell line was determined; assay type: functional; details: Homo sapiens, read-out: ED50 (the source's name)
[2] = tested on: NCI-H23; experiment: Effective dose to show cytotoxicity against non-small cell lung cancer NCI-H23 cell line was determined; assay type: functional; details: Homo sapiens, read-out: ED50 (the source's name)
[3] = tested on: OVCAR-3; experiment: Effective dose to show cytotoxicity against ovarian cancer OVCAR-3 cell line was determined; assay type: functional; details: Homo sapiens, read-out: ED50 (the source's name)
[4] = tested on: LOX IMVI; experiment: Effective dose to show cytotoxicity against melanomaLOX IMVI cell line was determined; assay type: functional; details: Homo sapiens, read-out: ED50 (the source's name)
[5] = tested on: MDA-MB-435 (Homo sapiens); experiment: Effective dose to show cytotoxicity against breast cancer MDA-MB-435 cell line was determined; details: read-out: ED50 (the source's name)
[6] = tested on: SN12C; experiment: Effective dose to show cytotoxicity against renal cancer SN12C cell line was determined; assay type: functional; details: Homo sapiens, read-out: ED50 (the source's name)
[7] = tested on: PC-3; experiment: Effective dose to show cytotoxicity against prostate cancer PC-3 cell line was determined; assay type: functional; details: Homo sapiens, read-out: ED50 (the source's name)
[8] = tested on: OVCAR-8; experiment: Effective dose to show cytotoxicity against ovarian cancer OVCAR-8 cell line was determined; assay type: functional; details: Homo sapiens, read-out: ED50 (the source's name)
[9] = tested on: CAKI-1; experiment: The compound was evaluated for cytotoxicity against CAKI-1 renal cancer cell line; assay type: functional; details: Homo sapiens
[10] = tested on: HL-60; experiment: Concentration for 50% cell kill against leukemia HL-60 (TB) cell line was determined; assay type: functional; details: Homo sapiens, read-out: LC50 (the source's name)
[11] = tested on: K562; experiment: Effective dose to show cytotoxicity against leukemia K-562 cell line was determined; assay type: functional; details: Homo sapiens, read-out: ED50 (the source's name)
[12] = tested on: NCI-H23; experiment: Concentration for 50% cell kill against non-small cell lung cancer NCI-H23 cell line was determined; assay type: functional; details: Homo sapiens, read-out: LC50 (the source's name)
[13] = tested on: CCRF-CEM; experiment: Concentration for 50% cell kill against leukemia CCRF-CEM cell line was determined; assay type: functional; details: Homo sapiens, read-out: LC50 (the source's name)
[14] = tested on: HCT-116; experiment: Effective dose to show cytotoxicity against colon cancer HCT116 cell line was determined; assay type: functional; details: Homo sapiens, read-out: ED50 (the source's name)
[15] = tested on: RPMI-8226; experiment: Cytotoxicity exhibited by the compound for total growth inhibition of leukemia RPMI-8226 cell line; assay type: functional; details: Homo sapiens
[16] = tested on: U-251; experiment: Effective dose to show cytotoxicity against CNS cancer U251 cell line was determined; assay type: functional; details: Homo sapiens, read-out: ED50 (the source's name)
[17] = tested on: M14; experiment: Cytotoxicity exhibited by the compound for total growth inhibition of melanoma M14 cell line; assay type: functional; details: Homo sapiens
[18] = tested on: NCI-H23; experiment: Cytotoxicity exhibited by the compound for total growth inhibition of non-small cell lung cancer NCI-H23 cell line; assay type: functional; details: Homo sapiens
[19] = tested on: PC-3; experiment: The compound was evaluated for cytotoxicity against PC-3 prostate cancer cell line; assay type: functional; details: Homo sapiens
[20] = tested on: RXF 393; experiment: Cytotoxicity exhibited by the compound for total growth inhibition of renal cancer RXF 393 cell line; assay type: functional; details: Homo sapiens
[21] = tested on: T47D; experiment: Cytotoxicity exhibited by the compound for total growth inhibition of breast cancer T-47D cell line; assay type: functional; details: Homo sapiens
[22] = tested on: SR; experiment: Cytotoxicity exhibited by the compound for total growth inhibition of leukemia SR cell line; assay type: functional; details: Homo sapiens
[23] = tested on: T47D; experiment: Concentration for 50% cell kill against breast cancer T-47D cell line was determined; assay type: functional; details: Homo sapiens, read-out: LC50 (the source's name)
[24] = tested on: Malme-3M; experiment: Effective dose to show cytotoxicity against melanoma MALME-3M cell line was determined; assay type: functional; details: Homo sapiens, read-out: ED50 (the source's name)
[25] = tested on: CAKI-1; experiment: Cytotoxicity exhibited by the compound for total growth inhibition of renal cancer CAKI-1 cell line; assay type: functional; details: Homo sapiens
[26] = tested on: NCI-H322M; experiment: Effective dose to show cytotoxicity against non-small cell lung cancer NCI-H322M cell line was determined; assay type: functional; details: Homo sapiens, read-out: ED50 (the source's name)
[27] = tested on: MDA-MB-435 (Homo sapiens); experiment: Cytotoxicity exhibited by the compound for total growth inhibition of breast cancer MDA-MB-435 cell line
[28] = tested on: MOLT-4; experiment: Concentration for 50% cell kill against leukemia MOLT-4 cell line was determined; assay type: functional; details: Homo sapiens, read-out: LC50 (the source's name)
[29] = tested on: OVCAR-8; experiment: Cytotoxicity exhibited by the compound for total growth inhibition of ovarian cancer OVCAR-8 cell line; assay type: functional; details: Homo sapiens
[30] = tested on: SNB-75; experiment: Effective dose to show cytotoxicity against CNS cancer SNB-75 cell line was determined; assay type: functional; details: Homo sapiens, read-out: ED50 (the source's name)
[31] = tested on: CAKI-1; experiment: Concentration for 50% cell kill against renal cancerCAKI-1 cell line was determined; assay type: functional; details: Homo sapiens, read-out: LC50 (the source's name)
[32] = tested on: KM12; experiment: Cytotoxicity exhibited by the compound for total growth inhibition of colon cancer KM-12 cell line; assay type: functional; details: Homo sapiens
[33] = tested on: MDA-N; experiment: Effective dose to show cytotoxicity against breast cancer MDA-N cell line was determined; assay type: functional; details: Homo sapiens, read-out: ED50 (the source's name)
[34] = tested on: CCRF-CEM; experiment: Effective dose to show cytotoxicity against leukemia CCRF-CEM cell line was determined; assay type: functional; details: Homo sapiens, read-out: ED50 (the source's name)
[35] = tested on: SNB-75; experiment: Concentration for 50% cell kill against CNS cancer SNB-75 cell line was determined; assay type: functional; details: Homo sapiens, read-out: LC50 (the source's name)
[36] = tested on: HL-60; experiment: Cytotoxicity exhibited by the compound for total growth inhibition of leukemia HL-60 (TB) cell line; assay type: functional; details: Homo sapiens
[37] = tested on: OVCAR-3; experiment: Cytotoxicity exhibited by the compound for total growth inhibition of ovarian cancer OVCAR-3 cell line; assay type: functional; details: Homo sapiens
[38] = tested on: IGROV-1; experiment: Concentration for 50% cell kill against ovarian cancer IGROV 1 cell line was determined; assay type: functional; details: Homo sapiens, read-out: LC50 (the source's name)
[39] = tested on: LOX IMVI; experiment: The compound was evaluated for cytotoxicity against LOX-IMVI melanoma cell line; assay type: functional; details: Homo sapiens
[40] = tested on: U-251; experiment: Cytotoxicity exhibited by the compound for total growth inhibition of CNS cancer U251 cell line; assay type: functional; details: Homo sapiens
[41] = tested on: KM12; experiment: Effective dose to show cytotoxicity against colon cancer KM-12 cell line was determined; assay type: functional; details: Homo sapiens, read-out: ED50 (the source's name)
[42] = tested on: SN12C; experiment: Concentration for 50% cell kill against renal cancer SN12C cell line was determined; assay type: functional; details: Homo sapiens, read-out: LC50 (the source's name)
[43] = tested on: COLO 205; experiment: Concentration for 50% cell kill against colon cancer COLO 205 cell line was determined; assay type: functional; details: Homo sapiens, read-out: LC50 (the source's name)
[44] = tested on: SR; experiment: Effective dose to show cytotoxicity against leukemia SR cell line was determined; assay type: functional; details: Homo sapiens, read-out: ED50 (the source's name)
[45] = tested on: SNB-19; experiment: Cytotoxicity exhibited by the compound for total growth inhibition of CNS cancer SNB-19 cell line; assay type: functional; details: Homo sapiens
[46] = tested on: U-251; experiment: Concentration for 50% cell kill against CNS cancer U251 cell line was determined; assay type: functional; details: Homo sapiens, read-out: LC50 (the source's name)
[47] = tested on: NCI-H522; experiment: Effective dose to show cytotoxicity against non-small cell lung cancer NCI-H522 cell line was determined; assay type: functional; details: Homo sapiens, read-out: ED50 (the source's name)

With Cc1c2ccncc2c(C)c2c1[nH]c1ccc(CO)cc12 the EC50 [1] was 240 nM, the EC50 [2] was 680 nM and the EC50 [3] was 700 nM. The EC50 [4] was 370 nM, the EC50 [5] was 240 nM and the EC50 [6] was 220 nM. The EC50 [7] was 450 nM, the EC50 [8] was 420 nM and the GI50 [9] was 370 nM. It also gave a CC50 [10] of 900 nM, an EC50 [11] of 30 nM and a CC50 [12] of 79000 nM. For the same compound, the CC50 [13] was > 100000 nM, the EC50 [14] was 50 nM and the TGI [15] was 220 nM. For the same compound, the EC50 [16] was 280 nM, the TGI [17] was 3650 nM and the TGI [18] was 9440 nM. It also gave a GI50 [19] of 450 nM, a TGI [20] of 3890 nM and a TGI [21] of 18400 nM. It also gave a TGI [22] of 490 nM, a CC50 [23] of 78200 nM and an EC50 [24] of 640 nM. For the same compound, the TGI [25] was 13400 nM, the EC50 [26] was 620 nM and the TGI [27] was 1610 nM. It also gave a CC50 [28] of 4090 nM, a TGI [29] of 11300 nM and an EC50 [30] of 490 nM. For the same compound, the CC50 [31] was 52600 nM, the TGI [32] was 1520 nM and the EC50 [33] was 350 nM. The EC50 [34] was 60 nM, the CC50 [35] was 14900 nM and the TGI [36] was 110 nM. The TGI [37] was 52100 nM, the CC50 [38] was 62000 nM and the GI50 [39] was 370 nM. For the same compound, the TGI [40] was > 100000 nM, the EC50 [41] was 160 nM and the CC50 [42] was 1910 nM. The CC50 [43] was 10200 nM, the EC50 [44] was 40 nM and the TGI [45] was 11500 nM. For the same compound, the CC50 [46] was > 100000 nM and the EC50 [47] was 300 nM.
